Measurements as given in patent US5981517A, “Androstene derivatives” (priority 1997, dated 1999).
Like-named read-outs stand apart in the source and are kept apart here.

Columns and labels:
[1] = test system: forearm of a human volunteer; assay: Further human vasoconstriction testing, Method 2; format: in vivo; set-up: key: +: "positive" (pallor could be observed); -: "negative" (pallor could not be detected)
Description: The mixtures, in 20 μL amounts, were applied to circular patches (1/4 inch diameter). The patches were applied to the forearm of a human volunteer, and covered with a water impervious film for 3 hr. Vasoconstriction activity was judged by the appearance of pallor at various time points after the patches were removed. Tests were performed on the same person and the results were obtained from 2-4 observations.
In TABLE XIV above, "-" means a negative result was obtained. In other tables herein, "-" means not tested.
In TABLE XIV above, the results of a simpler method of judging vasoconstriction activity was used in which only "positive" (pallor could be observed) or "negative" (pallor could not be detected) results were recorded.

[2] = biological target: T1, rat lung glucocorticoid receptor (Rattus norvegicus, UniProt P06536); assay: Receptor binding studies ([3H]triamcinolone acetonide displacement); conditions: for Relative binding affinity (RBA): with respect to dexamethasone (RBA = 100); for RBA: further receptor binding studies (Table X), dexamethasone = 100, * mean ± SE of 3-5 results
T1 construct: Immediately after resection of the lungs, the tissue was frozen in ice; The cytosol was prepared; from tissue; host or cells: lung cytosol of adrenalectomized male Sprague-Dawley rats
T1 sequence (P06536 1-795): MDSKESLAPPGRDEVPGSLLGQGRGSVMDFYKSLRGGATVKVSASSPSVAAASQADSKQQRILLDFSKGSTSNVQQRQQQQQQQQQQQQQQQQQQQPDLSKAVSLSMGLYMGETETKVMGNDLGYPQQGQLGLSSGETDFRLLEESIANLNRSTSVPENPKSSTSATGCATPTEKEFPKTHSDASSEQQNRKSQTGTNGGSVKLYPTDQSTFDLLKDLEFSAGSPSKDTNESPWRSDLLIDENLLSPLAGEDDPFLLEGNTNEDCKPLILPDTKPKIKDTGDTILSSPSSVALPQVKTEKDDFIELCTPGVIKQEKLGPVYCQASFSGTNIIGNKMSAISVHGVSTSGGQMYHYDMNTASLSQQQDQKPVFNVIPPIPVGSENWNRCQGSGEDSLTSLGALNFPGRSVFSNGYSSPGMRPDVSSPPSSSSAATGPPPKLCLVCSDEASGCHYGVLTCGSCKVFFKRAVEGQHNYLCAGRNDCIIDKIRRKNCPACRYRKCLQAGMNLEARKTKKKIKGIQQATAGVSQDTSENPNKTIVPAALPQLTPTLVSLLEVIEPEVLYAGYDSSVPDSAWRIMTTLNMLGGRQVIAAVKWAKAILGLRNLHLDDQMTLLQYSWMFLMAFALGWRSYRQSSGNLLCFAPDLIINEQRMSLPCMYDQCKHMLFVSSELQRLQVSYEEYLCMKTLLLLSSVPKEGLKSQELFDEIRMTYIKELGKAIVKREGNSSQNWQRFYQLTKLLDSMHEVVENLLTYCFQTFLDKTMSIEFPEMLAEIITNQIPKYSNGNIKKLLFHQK
Description: Male Sprague-Dawley rats, each weighing 150 to 200 g, were used 6 days after adrenalectomy. Rats were sacrificed by decapitation. Immediately after resection of the lungs, the tissue was frozen in ice. […] Portions (5 ml) of the cytosol were frozen in liquid nitrogen and stored at -80° C.
The cytosol was thawed in a water bath and diluted with 1 part of incubation buffer containing a 15 mM concentration of diisopropyl fluorophosphate. […] After a 2 hour incubation period at room temperature (24° C.), the unbound steroid was removed by addition of a 2% suspension of activated charcoal in incubation buffer (400 μL). The mixture was incubated for 5 minutes at room temperature and then was centrifuged at about 10,000 g for 3 minutes in the microcentrifuge. The radioactivity (cpm) in the supernatant (400 μL) was determined by liquid scintillation counting.
The data is fitted to the following logistic function:
B=T-T * C^N /(C^N +IC50^N)+NS,
where B=CPM in the presence of competitor, T=CPM in the absence of competitor, C=competitor concentration, N=Hill slope factor, and NS=cpm under non-specific binding conditions.
For the representative compound of the invention B, receptor binding affinity was investigated with and without Δ^1 -cortienic acid in the incubation solution to study the effect of Δ^1 -cortienic acid on the receptor binding.
Further studies to evaluate the relative receptor binding affinities of compounds of the invention, other compounds of formula (VII) hereinabove and well-known anti-inflammatory steroids were undertaken, using the methods described in the RECEPTOR BINDING STUDIES set forth above. […] For comparison purposes, the following compounds having formula (VII) above were also tested: […]

[3] = test system: forearm of a human volunteer; assay: Human vasoconstriction test; format: in vivo; conditions: 10 mM
Description: Test compounds (10 mM) were dissolved in ethanol/propylene glycol (9/1) solution, and 50 μL of the mixtures were applied to circular patches, 8 mm in diameter. After ethanol evaporation, the patches were applied to the forearm of a human volunteer, and covered with a water impervious film for 3 hours. The intensity of vasoconstriction was judged 1, 8, 17 and 24 hours after the patches were removed.
The grading scale for the vasoconstriction activity was as follows: 0, normal skin; 1, slight pallor of indistinct outline; 2, pallor with at least two corners outlined; 3, even pallor with a clear outline of the application sites; 4, very intense pallor.

[4] = test system: forearms of a human volunteer; assay: Further human vasoconstriction testing, Method 1; format: in vivo; conditions: 10 mM
Description: The mixtures, in 50 μL amounts, were applied to circular patches (8 mm diameter). After evaporation of ethanol, the patches were applied to the forearms of a human volunteer, and covered with a water impervious film for 3 hr. The intensity of vasoconstriction (scale 0-4) was judged at various time intervals after removal of the patches. The grading scale was as follows: 0, normal skin; 1, slight pallor of indistinct outline; 2, pallor with at least two corners outlined; 3, even pallor with a clear outline of the application sites; 4, very intense pallor. The skin tests (2-4 tests on each compound) were performed on the same person.

[5] = rat lung cytosol, 10 nM [3H]triamcinolone acetonide, with Δ1-cortienic acid, 2 h, 24° C., read-out: IC50

CCOC(=O)[C@@]1(OC(=O)CCl)[C@H](C)C[C@H]2[C@@H]3CCC4=CC(=O)C=C[C@]4(C)[C@@]3(F)[C@@H](O)C[C@@]21C [T]
-: Vasoconstriction activity ([1]; 4 Hours, 0.01 mM) | Vasoconstriction activity ([1]; 4 Hours, 0.05 mM) | Vasoconstriction activity ([1]; 4 Hours, 0.1 mM) | Vasoconstriction activity ([1]; 4 Hours, 0.5 mM) | Vasoconstriction activity ([1]; 4 Hours, 1 mM) | Vasoconstriction activity ([1]; 4 Hours, 5 mM)

CC(C)OC(=O)[C@@]1(O)CC[C@H]2[C@@H]3CCC4=CC(=O)C=C[C@]4(C)[C@H]3[C@@H](O)C[C@@]21C [G]
> 2 µM: IC50 [2, 5]
< 1: Relative binding affinity (RBA) ([2]; with Δ1-cortienic acid)

C[C@]12C=CC(=O)C=C1CC[C@@H]1[C@@H]2[C@@H](O)C[C@@]2(C)[C@H]1CC[C@]2(OC(=O)C(Cl)Cl)C(=O)O [H, 17α-dichloroacetoxy-11β-hydroxyandrosta-1,4-dien-3-one-17β-carboxylic acid]
> 2 µM: IC50 [2, 5]
< 2: Relative binding affinity (RBA) ([2]; with Δ1-cortienic acid)

CCOC(=O)[C@@]1(O)CC[C@H]2[C@@H]3CCC4=CC(=O)C=C[C@]4(C)[C@H]3[C@@H](O)C[C@@]21C [F]
< 1: Relative binding affinity (RBA) ([2]; with Δ1-cortienic acid)
> 2 µM: IC50 [2, 5]

CC(=O)[C@@]1(O)CC[C@H]2[C@@H]3C[C@H](C)C4=CC(=O)C=C[C@]4(C)[C@@]3(F)[C@@H](O)C[C@@]21C [Fluorometholone, reference compound]
136 ± 5: RBA [2]

C[C@@H]1C[C@H]2[C@@H]3CCC4=CC(=O)C=C[C@]4(C)[C@@]3(F)[C@@H](O)C[C@]2(C)[C@@]1(O)C(=O)CO [Dexamethasone, reference compound]
0: Vasoconstriction activity ([3]; 1 hour after patch removal)
1: Vasoconstriction activity ([3]; 8 hours after patch removal) | Vasoconstriction activity ([3]; 17 hours after patch removal) | Vasoconstriction activity ([3]; 24 hours after patch removal) | Vasoconstriction activity ([4]; 3 Hours) | Vasoconstriction activity ([4]; 20 Hours)

COC(=O)[C@@]1(O)CC[C@H]2[C@@H]3CCC4=CC(=O)C=C[C@]4(C)[C@H]3[C@@H](O)C[C@@]21C [E]
> 2 µM: IC50 [2]
< 1: Relative binding affinity (RBA) ([2]; with Δ1-cortienic acid)

CC1(C)O[C@@H]2C[C@H]3[C@@H]4CCC5=CC(=O)C=C[C@]5(C)[C@@]4(F)[C@@H](O)C[C@]3(C)[C@]2(C(=O)CO)O1 [Triamcinolone acetonide, reference compound]
630: RBA [2]
628: Relative binding affinity (RBA) ([2]; with Δ1-cortienic acid)
0.013 µM: IC50 [2]

C[C@@H]1C[C@H]2[C@@H]3CCC4=CC(=O)C=C[C@]4(C)[C@@]3(F)[C@@H](O)C[C@]2(C)[C@@]1(OC(=O)C(Cl)Cl)C(=O)OCCl [K, chloromethyl 17α-dichloroacetoxy-9α-fluoro-11β-hydroxy-16α-methylandrosta-1,4-dien-3-one-17β-carboxylate]
+: Vasoconstriction activity ([1]; 4 Hours, 1 mM) | Vasoconstriction activity ([1]; 4 Hours, 5 mM) | Vasoconstriction activity ([1]; 8 Hours, 0.1 mM) | Vasoconstriction activity ([1]; 8 Hours, 0.5 mM) | Vasoconstriction activity ([1]; 8 Hours, 1 mM) | Vasoconstriction activity ([1]; 8 Hours, 5 mM) | Vasoconstriction activity ([1]; 10-22 hours, 0.5 mM) | Vasoconstriction activity ([1]; 10-22 hours, 1 mM) | Vasoconstriction activity ([1]; 10-22 hours, 5 mM) | Vasoconstriction activity ([1]; 24 Hours, 0.5 mM) | Vasoconstriction activity ([1]; 24 Hours, 1 mM) | Vasoconstriction activity ([1]; 24 Hours, 5 mM)
-: Vasoconstriction activity ([1]; 4 Hours, 0.01 mM) | Vasoconstriction activity ([1]; 4 Hours, 0.05 mM) | Vasoconstriction activity ([1]; 4 Hours, 0.1 mM) | Vasoconstriction activity ([1]; 4 Hours, 0.5 mM) | Vasoconstriction activity ([1]; 8 Hours, 0.01 mM) | Vasoconstriction activity ([1]; 8 Hours, 0.05 mM) | Vasoconstriction activity ([1]; 10-22 hours, 0.01 mM) | Vasoconstriction activity ([1]; 10-22 hours, 0.05 mM) | Vasoconstriction activity ([1]; 10-22 hours, 0.1 mM) | Vasoconstriction activity ([1]; 24 Hours, 0.01 mM) | Vasoconstriction activity ([1]; 24 Hours, 0.05 mM) | Vasoconstriction activity ([1]; 24 Hours, 0.1 mM)

COC(=O)[C@@]1(OC(=O)CCl)[C@H](C)C[C@H]2[C@@H]3CCC4=CC(=O)C=C[C@]4(C)[C@@]3(F)[C@@H](O)C[C@@]21C [S]
-: Vasoconstriction activity ([1]; 4 Hours, 0.01 mM) | Vasoconstriction activity ([1]; 4 Hours, 0.05 mM) | Vasoconstriction activity ([1]; 4 Hours, 0.1 mM) | Vasoconstriction activity ([1]; 4 Hours, 0.5 mM) | Vasoconstriction activity ([1]; 4 Hours, 1 mM) | Vasoconstriction activity ([1]; 4 Hours, 5 mM)
